Results published in PMC6894747 (PLoS Pathogens, 2019).
Read-outs that look alike come from different tables or passages of the source. Positions of bridges follow the written chain, without caps; N, C: chain ends. Residues, ends and D or L forms follow the SMILES beside them. No end group written: not given here.

Columns and labels:
[1] = tested on: HIV-1 IIIB (subtype B, X4); format: cell-based; conditions: for IC50: IIIB (subtype B, X4)
Description: (§2) Briefly, 1×10^5/mL MT-2 or M7 cells were infected with different HIV-1 viruses at 100 TCID50 (50% tissue culture infective dose) in the presence or absence of peptides at graded concentrations overnight. Then the culture supernatants were replaced with equal volume of fresh medium. On the fourth day post-infection, supernatants were collected and mixed with equal volume of 5% Triton X-100. […] The IC50 values were calculated with CalcuSyn software [35–36], and inhibition curves of best fit were generated with GraphPad Prism.

MT-2 cells = experiment: Cytotoxicity assay (CCK-8); format: cell-based; conditions: for in vitro cytotoxicity to MT-2 cells: up to 5 μM, 48 h, CCK-8, triplicate
Description: (§1) The potential cytotoxicity of peptides on MT-2 and M7 cells was measured by using the Cell Counting Kit-8 according to the manufacturer’s instructions (CCK-8, Dojindo Laboratories, Kumamoto, Japan). Briefly, 100 μL of a peptide at graded concentrations were added to equal volumes of cells (10^4 cells/well) in a 96-well plate. Cell viability was evaluated using the CCK-8 kit after incubation at 37 °C for 2 days. Incubation with CCK-8 reagents at 37 °C for another 4 h, the absorbance at 450 nm was measured with an ELISA reader, and the percentage of cytotoxicity was calculated.

M7 cells = experiment: Cytotoxicity assay (CCK-8); format: cell-based; conditions: up to 5 μM, 48 h, triplicate
Description: as §1

rhesus monkey IgG = experiment: Isothermal titration calorimetry (ITC); format: binding; conditions: 300 μM peptide injected into 30 μM rhesus monkey IgG, PBS, 25 °C
Description: ITC assay was performed with an ITC microcalorimeter instrument (NANO ITC, TA Instruments, Lindon, UT) as described previously. In brief, 300 μM peptides were dissolved in PBS and injected into the chamber containing 30 μM of rhesus monkey IgG. The experiments were carried out at 25 °C. The time between injections was 300 s, and the stirring speed was 300 rpm. The heats of dilution were determined in control experiments by injecting peptides into PBS and then subtracting from the heats produced in the corresponding peptide-IgG binding experiments. Data acquisition and analysis were performed using the Origin software, and the best fitting curves were generated with GraphPad Prism.

[2] = rhesus monkeys; for t1/2: plasma, 10 mg/kg i.v., active peptide concentration estimated from ex vivo anti-HIV-1 IIIB activity (DF-IC50) and in vitro IC50, MODFIT; for AUC(0-t) / Cmax / MRT 0-inf_obs / Tmax: concentration estimated from ex vivo anti-HIV-1 activity
[3] = tested on: HIV-1 Bal (subtype B, R5); format: cell-based; conditions: for IC50: Bal (subtype B, R5)
Description: as §2

[4] = rhesus monkeys, 10 mg/kg i.v. daily for one month, within two months; indirect ELISA
Description: After incubation at 4 °C for 2 h and washes with PBS-T for three times, we added the serially 10-fold diluted plasma of the PBS- or peptide-treated rhesus monkeys. Goat Anti-Monkey IgG H&L (HRP) (Abcam) were incubated for 1 h at 37 °C and washed for five times.

in vivo = experiment: in vivo
Description: The samples were then centrifuged (3200 rpm for 10 min at 4 °C), and plasma was aliquoted and kept frozen until analysis.
After being coated, the plate was washed three times with PBS-T to remove the excess antibody. The remaining active sites on the plate were blocked by the addition of 150 μL 2% milk for 2 h at 37 °C. […] Then, HRP-labeled rabbit anti-mouse IgG (Sigma, USA) incubated at 37 °C for 1 h. The substrate TMB reagent were added and incubated for 5 min, resulting in the development of a blue color. Color development was stopped by the stop solution (1M H2SO4 50 μL/well). Absorbance at 450 nm was determined by an ELISA reader (Ultra 384, Tecan; Tecan, Research Triangle Park, NC).

human IgG = experiment: ELISA binding to human IgG; conditions: for binding to human IgG: ELISA, dose-dependent, triplicate
Description: Next, different concentrations of human or rhesus monkey IgG were added to the peptide-coated plate and incubated at 37 °C for 1 h. Rabbit anti-human IgG-HRP (1:3000 diluted) was added to each well and incubated at 37 °C for another 1 h. Afterwards, the bound IgG-HRP was detected by addition of the HRP substrate TMB. The reaction was terminated by addition of 1 M H2SO4 50 μL. Absorbance at 450 nm was measured using an ELISA reader (Ultra 384; Tecan, Research Triangle Park, NC).
The data was fitted to the “one site – specific binding” using GraphPad Prism. The standard error (SE) is given for a sample size of three replicates per data point.

HIV-1 JR-CSF = experiment: Prophylactic efficacy against HIV-1 challenge in humanized mice; format: in vivo, humanized NRG (NRG-hu HSC) mice; conditions: for cell-associated HIV-1 DNA and RNA in spleen and bone marrow: day 28 post-infection, real-time PCR; for mice HIV-1 viremia-positive at 7 dpi / mice with viremia at 14 dpi / viral load at 7 dpi: humanized mice; for mice HIV-1 viremia-positive at 7 dpi: 20 mg/kg i.p. 2 h before challenge, 6 h post-infection and daily for 3 days, CP24 n = 8, IBP-CP24 n = 7; for mice with viremia at 14 dpi / viral load at 7 dpi: 20 mg/kg i.p. prophylactic regimen; for viral load at 7 dpi: plasma HIV-1 RNA
Description: The mice were challenged with HIV-1 JR-CSF (5 ng p24/mouse) through retro-orbital injection at 2 h post-treatment. Then the mice were treated with PBS or peptides at 6 hours post-infection and once every day for 3 consecutive days. Plasma samples were obtained for viral load determination at days 0, 7, 14, 21 and 28 post-infection.
HIV-1 genomic RNA was purified from plasma by using the QIAamp Viral RNA Mini Kit. The RNA was reverse-transcribed and quantitatively detected by real-time PCR with the TaqMan Fast Virus 1-Step PCR kit (Thermo Fisher Scientific). We used the forward primer 5’-[…]-3’ and the reverse primer 5’-[…]-3’ to detect the HIV gag gene. The probe (FAM-[…]-QSY7) used for detection was ordered from Applied Biosystems, and the reactions were set up following the manufacturer’s guidelines and were run on the QuantStudio 6 Flex PCR system (Applied Biosystems). The limit of detection of each real-time PCR was 4 copies per reaction. Accordingly, owing to the relatively small volume of plasma in mice (about 50–100 μL total blood), the limit of detection was 400 copies/mL plasma. The copy numbers below the detectable limit were set as 1. Triplicate reactions were performed for each sample.
To evaluate cell-associated HIV-1 DNA, total DNA was extracted from mouse spleen and bone marrow cells using the DNeasy Mini Kit (Qiagen). HIV-1 DNA was quantified by real-time PCR. DNA from serial dilutions of ACH2 cells, which contain 1 copy of the HIV genome in each cell, was used to create a standard curve.
To detect cell-associated HIV-1 RNA, total cell RNA was extracted from mouse spleen and bone marrow cells using the RNeasy Plus Mini Kit (Qiagen). The RNA was reverse-transcribed to cDNA and then quantified by real-time PCR, as described above. DNA from serial dilutions of ACH2 cells was used to generate a standard curve.

[5] = rhesus monkey, plasma, iv, 10 mg/kg

Compound	IC50 [1] [nM]	in vitro cytotoxicity to MT-2 cells (MT-2 cells)	in vitro cytotoxicity to M7 cells (M7 cells)	Kd (rhesus monkey IgG) [µM]	t1/2 [2] [h]	AUC(0-t) [2] [µg·h/mL]	Cmax [2] [µg/mL]	MRT 0-inf_obs [2] [h]	Tmax [2] [h]	IC50 [3] [nM]	peptide-specific antibodies in plasma [4]	AUC(0-t) (in vivo; [5]) [µg·h/mL]	Cmax (in vivo; [5]) [ng/mL]	MRT (in vivo; [5]) [h]	half-life (in vivo; [5]) [min]	binding to human IgG (human IgG)	cell-associated HIV-1 DNA and RNA in spleen and bone marrow (HIV-1 JR-CSF)	mice HIV-1 viremia-positive at 7 dpi (HIV-1 JR-CSF) [%]	mice with viremia at 14 dpi (HIV-1 JR-CSF) [%]	viral load at 7 dpi (HIV-1 JR-CSF)	further results
CC[C@H](C)[C@H](NC(=O)[C@H](CC(C)C)NC(=O)[C@H](CCC(=O)O)NC(=O)[C@H](CCC(=O)O)NC(=O)[C@@H](NC(=O)[C@H](CCCCN)NC(=O)[C@H](CCCCN)NC(=O)[C@@H](NC(=O)[C@H](Cc1ccc(O)cc1)NC(=O)[C@H](CCC(=O)O)NC(=O)[C@H](CCC(=O)O)NC(=O)[C@@H](NC(=O)[C@H](CCCCN)NC(=O)[C@H](CCCCN)NC(=O)[C@H](CC(=O)O)NC(=O)[C@H](Cc1c[nH]c2ccccc12)NC(=O)[C@H](CCC(=O)O)NC(=O)[C@H](CCC(=O)O)NC(=O)[C@H](Cc1c[nH]c2ccccc12)NC(=O)[C@@H](NC(=O)[C@H](CCSC)NC(=O)[C@@H](NC(=O)[C@@H]1CSSC[C@H](NC(=O)[C@@H](N)CC(=O)O)C(=O)N[C@@H](C)C(=O)N[C@@H](Cc2c[nH]c3ccccc23)C(=O)N[C@@H](Cc2c[nH]cn2)C(=O)N[C@@H](CC(C)C)C(=O)NCC(=O)N[C@@H](CCC(=O)O)C(=O)N[C@@H](CC(C)C)C(=O)N[C@@H](C(C)C)C(=O)N[C@@H](Cc2c[nH]c3ccccc23)C(=O)N1)[C@@H](C)O)[C@@H](C)O)[C@@H](C)CC)[C@@H](C)O)[C@@H](C)CC)C(=O)N[C@@H](CCCCN)C(=O)N[C@@H](CCCCN)C(=O)N[C@@H](CO)C(=O)O [IBP-CP24] (H-DCAWHLGELVWCTMTWEEWDKKIEEYTKKIEELIKKS-OH; disulfide 2-12; N-terminus and C-terminus assumed)	5.9	no significant in vitro cytotoxicity	no significant in vitro cytotoxicity	0.946	44.81	3610.65	76.23	61.39	4	2.57	no significant detectable antibodies	3430	52700	64.4	2770	higher binding affinity with human IgG than IBP alone	undetectable	28.5	28.5	about 2.5 log10 copies/mL	fold more potent than CP24 against HIV-1 IIIB [1]: about 2.3 fold; non-cytotoxic concentration fold higher than IC50 for HIV-1 inhibition (MT-2 cells; 5 μM versus IC50, MT-2 and M7 cells): more than 800 fold; fold more potent than CP24 against HIV-1 Bal [3]: ~2.9 fold; fold longer half-life than CP24 (in vivo; rhesus monkey plasma, 10 mg/kg i.v.): 26 fold; fold higher AUC 0-t than CP24 (in vivo; rhesus monkeys, 10 mg/kg i.v.): about 18 fold; Tmax (in vivo; rhesus monkeys, single i.v. 10 mg/kg, sandwich ELISA, CP24 n = 2, IBP-CP24 n = 3): 4 h; Kd (human IgG; read-out: Estimated Kd of binding to human IgG, ELISA on peptide-coated plate, one site specific binding fit, ± SE, three replicates per point): 177 nM
MTWEEWDKKIEEYTKKIEELIKKS [CP24, reference compound]	19.5	no in vitro cytotoxicity	no in vitro cytotoxicity	1000	1.37	237.88	77.82	3.17	2	10.1	no significant detectable antibodies	180	23600	4.47	101	could not bind with human IgG	high levels	50	62.5	about 3.6 log10 copies/mL	Tmax (in vivo; [5]): 2 h
